In patent publication US20260125360A1, “HERBICIDAL IMIDAZOLE COMPOUNDS” (SYNGENTA CROP PROTECTION AG, priority 2022, published 2026):

Key:
Assay type in all cases: in vivo
Settings in all cases: 250 g/ha, evaluated after 13 days
[1] = test system: Ipomoea hederacea (IPOHE); assay: Post-emergence herbicide glasshouse test
Method in brief: (§1)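 Damage rated 13 days after spraying on a five-point scale (1=0–20% … 5=81–100%). Compound applied at 250 g/ha by default, as aqueous spray from acetone/water 50:50 plus 0.5% Tween 20, to pots one day post-sowing (pre) or after 8 days of growth (post). Plants kept at 24/16 °C, 14 h light, 65% humidity, watered twice daily.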

[2] = test system: Amaranthus palmeri (AMAPA); assay: Post-emergence herbicide glasshouse test
Method in brief: as §1

[3] = test system: Amaranthus retoflexus (AMARE); assay: Post-emergence herbicide glasshouse test
Method in brief: as §1

[4] = test system: Echinochloa crus-galli (ECHCG); assay: Post-emergence herbicide glasshouse test
Method in brief: as §1

[5] = test system: Ipomoea hederacea (IPOHE); assay: Pre-emergence herbicide glasshouse test
Method in brief: as §1

[6] = test system: Amaranthus palmeri (AMAPA); assay: Pre-emergence herbicide glasshouse test
Method in brief: as §1

[7] = test system: Amaranthus retoflexus (AMARE); assay: Pre-emergence herbicide glasshouse test
Method in brief: as §1

[8] = test system: Echinochloa crus-galli (ECHCG); assay: Pre-emergence herbicide glasshouse test
Method in brief: as §1

| SMILES | percentage damage caused to the plant, IPOHE (five-point scale) [1] | percentage damage caused to the plant, AMAPA (five-point scale) [2] | percentage damage caused to the plant, AMARE (five-point scale) [3] | percentage damage caused to the plant, ECHCG (five-point scale) [4] | percentage damage caused to the plant, IPOHE (five-point scale) [5] | percentage damage caused to the plant, AMAPA (five-point scale) [6] | percentage damage caused to the plant, AMARE (five-point scale) [7] | percentage damage caused to the plant, ECHCG (five-point scale) [8] |
| --- | --- | --- | --- | --- | --- | --- | --- | --- |
| CCc1cnc(Cn2cc(C(F)(F)F)nc2-c2ccc(Cl)nc2)o1 [Compound 1.092] | 4 (4=61-80%) | 4 (4=61-80%) | 4 (4=61-80%) | 5 (5=81-100%) | 5 (5=81-100%) | 5 (5=81-100%) | 5 (5=81-100%) | 5 (5=81-100%) |
| Cc1cnc(Cn2cc(C(F)(F)F)nc2-c2ccc(Cl)nc2)o1 [Compound 1.094] | 3 (3=41-60%) | 5 (5=81-100%) | 5 (5=81-100%) | 4 (4=61-80%) | 4 (4=61-80%) | 5 (5=81-100%) | 5 (5=81-100%) | 5 (5=81-100%) |
| Cc1coc(Cn2cc(C(F)(F)F)nc2-c2ccc(Cl)nc2)n1 [Compound 1.096] | 3 (3=41-60%) | 5 (5=81-100%) | 5 (5=81-100%) | 4 (4=61-80%) | 5 (5=81-100%) | 5 (5=81-100%) | 5 (5=81-100%) | 5 (5=81-100%) |
| Cc1nc(Cn2cc(C(F)(F)F)nc2-c2ccc(Cl)nc2)no1 [Compound 1.097] | 5 (5=81-100%) | 5 (5=81-100%) | 5 (5=81-100%) | 5 (5=81-100%) | 5 (5=81-100%) | 5 (5=81-100%) | 5 (5=81-100%) | 5 (5=81-100%) |
| CCc1noc(Cn2cc(C(F)(F)F)nc2-c2ccc(Cl)nc2)n1 [Compound 1.098] | 3 (3=41-60%) | 4 (4=61-80%) | 4 (4=61-80%) | 1 (1=0-20%) | 4 (4=61-80%) | 5 (5=81-100%) | 5 (5=81-100%) | 1 (1=0-20%) |
| CCn1cc(Cl)c(Cn2cc(C(F)(F)F)nc2-c2ccc(Cl)nc2)n1 [Compound 1.100] | 1 (1=0-20%) | 1 (1=0-20%) | 1 (1=0-20%) | 1 (1=0-20%) | 1 (1=0-20%) | 1 (1=0-20%) | 1 (1=0-20%) | 1 (1=0-20%) |
| Cc1noc(Cn2cc(C(F)(F)F)nc2-c2ccc(Cl)nc2)n1 [Compound 1.101] | 5 (5=81-100%) | 4 (4=61-80%) | 4 (4=61-80%) | 1 (1=0-20%) | 5 (5=81-100%) | 5 (5=81-100%) | 5 (5=81-100%) | 1 (1=0-20%) |
| Cn1nnc(Cn2cc(C(F)(F)F)nc2-c2ccc(Cl)nc2)n1 [Compound 1.109] | 5 (5=81-100%) | 5 (5=81-100%) | 5 (5=81-100%) | 1 (1=0-20%) | 5 (5=81-100%) | 5 (5=81-100%) | 5 (5=81-100%) | 5 (5=81-100%) |
| CCn1cc(Cn2cc(C(F)(F)F)nc2-c2ccc(Cl)nc2)nn1 [Compound 1.110] | 4 (4=61-80%) | 4 (4=61-80%) | 4 (4=61-80%) | 1 (1=0-20%) | 5 (5=81-100%) | 5 (5=81-100%) | 5 (5=81-100%) | 3 (3=41-60%) |
| FC(F)(F)c1cn(Cc2ccns2)c(-c2ccc(Cl)nc2)n1 [Compound 1.113] | 1 (1=0-20%) | 1 (1=0-20%) | 1 (1=0-20%) | 1 (1=0-20%) | 1 (1=0-20%) | 1 (1=0-20%) | 1 (1=0-20%) | 1 (1=0-20%) |
| FC(F)(F)c1cn(Cc2ccc(Cl)s2)c(-c2ccc(Cl)nc2)n1 [Compound 1.117] | 2 (2=21-40%) | 5 (5=81-100%) | 5 (5=81-100%) | 1 (1=0-20%) | 1 (1=0-20%) | 5 (5=81-100%) | 5 (5=81-100%) | 1 (1=0-20%) |
| FC(F)(F)c1cn(Cc2ncco2)c(-c2ccc(Cl)nc2)n1 [Compound 1.118] | 3 (3=41-60%) | 3 (3=41-60%) | 3 (3=41-60%) | 1 (1=0-20%) | 5 (5=81-100%) | 5 (5=81-100%) | 5 (5=81-100%) | 1 (1=0-20%) |
| FC(F)(F)c1cn(Cc2noc(C3CC3)n2)c(-c2ccc(Cl)nc2)n1 [Compound 1.125] | 5 (5=81-100%) | 4 (4=61-80%) | 5 (5=81-100%) | 4 (4=61-80%) | 5 (5=81-100%) | 5 (5=81-100%) | 5 (5=81-100%) | 5 (5=81-100%) |
| CC(C)c1nc(Cn2cc(C(F)(F)F)nc2-c2ccc(Cl)nc2)no1 [Compound 1.126] | 1 (1=0-20%) | 1 (1=0-20%) | 1 (1=0-20%) | 1 (1=0-20%) | 1 (1=0-20%) | 1 (1=0-20%) | 1 (1=0-20%) | 1 (1=0-20%) |
| CC(C)c1nnc(Cn2cc(C(F)(F)F)nc2-c2ccc(Cl)nc2)o1 [Compound 1.131] | 1 (1=0-20%) | 1 (1=0-20%) | 1 (1=0-20%) | 1 (1=0-20%) | 1 (1=0-20%) | 1 (1=0-20%) | 5 (5=81-100%) | 1 (1=0-20%) |
| FC(F)(F)c1cn(Cc2cc(C3CC3)no2)c(-c2ccc(Cl)nc2)n1 [Compound 1.134] | 4 (4=61-80%) | 5 (5=81-100%) | 5 (5=81-100%) | 2 (2=21-40%) | 4 (4=61-80%) | 5 (5=81-100%) | 5 (5=81-100%) | 3 (3=41-60%) |
